Laboratory results: patent EP4793292A1, “POLYPEPTIDE DERIVATIVE, PHARMACEUTICAL COMPOSITION THEREOF AND USE THEREOF” (Biocells (Beijing) Biotech Co., Ltd., priority 2023, dated 2025)
Starred links: 1 amine or outer side, 2 acyl side, 3 side chain; linkers in the order of their positions; H or OH if unused. Positions of bridges follow the written chain, without caps; N, C: chain ends. Non-standard residues stand in square brackets, D forms with d. Residues, ends and D or L forms follow the SMILES beside them. Groups on a side chain read outwards from the residue. No end group written: not given here. *: point of attachment. C18 diacid = O=C(O)CCCCCCCCCCCCCCCCC(=O)*; γGlu = O=C(O)[C@H](CCC(=O)[*:2])N[*:1]; Palmitoyl = CCCCCCCCCCCCCCCC(=O)*; Lauroyl = CCCCCCCCCCCC(=O)*; AEEA = NCCOCCOCC(=O)O

Tested on: SH-SY5Y cells
Experiment: Axonal growth of RA-differentiated SH-SY5Y cells on proteoglycan (ACAN) coating
Assay type: cell-based, human
Settings: PW polypeptide 2.5 µM, 72 h, proteoglycan (ACAN)-coated plate, FIG. 1
Description: Therefore, RA-induced differentiated SH-SY5Y can be used to simulate neuronal axonal growth in vitro and to test the effects of PW polypeptides on axonal growth.
Preparation of culture medium for SH-SY5Y: 1) DMEM/F12 + 10% FBS + 1 × penicillin-streptomycin + 1 mM sodium pyruvate; 2) DMEM/F12 + 1% FBS + 1 × penicillin-streptomycin + 1 mM sodium pyruvate. Preparation of 50 mM retinoic acid stock solution: 15.02 mg of retinoic acid was weighed and dissolved in 1 mL of dimethyl sulfoxide (DMSO), aliquoted, and frozen at -80°C. Proteoglycan (ACAN/CSPG1) is a type of chondroitin sulfate proteoglycan (CSPG). Preparation of 1 mg/mL proteoglycan stock solution: 1 mg of ACAN solid was dissolved in 1 mL of distilled water, aliquoted, and frozen at -80°C. Preparation of PW polypeptide solution for cells (1 mM): the corresponding mass of polypeptide powder was weighed, dissolved in PBS and filtered through a 0.2 µm filter membrane, aliquoted, and frozen at -20°C.
The 1 mg/mL proteoglycan was diluted to 250 µg/mL with distilled water to coat a 24-well cell culture plate: each well was coated with 3 droplets of ACAN, 2 µL per droplet. Using the culture medium containing 10% FBS, SH-SY5Y cells were seeded in the proteoglycan-coated 24-well plate (20,000 cells/well) and incubated (37°C, 5% CO2) for 20 h. The medium was replaced with a culture medium containing 1% FBS, and PW polypeptide (2.5 µM) or an equal volume of PBS solution was added. After incubation for 72 h, the cells were fixed with 4% paraformaldehyde (room temperature, 30 min), and cell morphology was photographed and recorded using a 10× optical microscope. 20-30 cells were randomly selected under each field of view, and axonal length was measured using Image J-SNT.
Data analysis: All measured axonal lengths within each proteoglycan-coated range were averaged to serve as one data point. One-way analysis of variance and Tukey's test were used to compare the differences between groups. P<0.05 was considered as a significant difference.

| Compound | effect of promoting axonal growth compared with the scrambled polypeptide (Scr, negative control) | promoting effect on axonal growth compared with PW6 |
| --- | --- | --- |
| PW-92: polypeptide derivative, SEQ ID NO: 10 (G[dR]KKR[dR]QRRRCDMAEHTERLK([AEEA-AEEA-γGlu-C18 diacid])ANDSLKLSQEYESI-NH2; not fully specified (residue 8)) | significant effect of promoting axonal growth | no significant difference |
| PW-96: polypeptide derivative, SEQ ID NO: 13 (GRKKRRQRRRDMAEHTERLKAKDSLKLSQEYESI; not fully specified; MOD_RES 34: note = I at position 34 is amidated; LIPID 22: note = Lys side-chain linked to 2-(2-(2-amino ethoxy) ethoxy) acetic acid-2-(2-(2-amino ethoxy) ethoxy)acetic acid-gamma Glutamic acid-Octadecanedioic acid; SITE 6: note = D-arginine; SITE 2: note = D-arginine; SITE 8: n) | – | not significantly enhanced |
| PW-261: polypeptide derivative, SEQ ID NO: 51 (G[dR]KKR[dR]Q[dR]RRDMAEHTERLK([AEEA-γGlu-Lauroyl])ANDSLKLSQEYESI-NH2; N-terminus assumed; SMILES CCCCCCCCCCCC(=O)N[C@@H](CCC(=O)NCCOCCOCC(=O)NCCCC[C@H](NC(=O)[C@H](CC(C)C)NC(=O)[C@H](CCCNC(=N)N)NC(=O)[C@H](CCC(=O)O)NC(=O)[C@@H](NC(=O)[C@H](Cc1c[nH]cn1)NC(=O)[C@H](CCC(=O)O)NC(=O)[C@H](C)NC(=O)[C@H](CCSC)NC(=O)[C@H](CC(=O)O)NC(=O)[C@H](CCCNC(=N)N)NC(=O)[C@H](CCCNC(=N)N)NC(=O)[C@@H](CCCNC(=N)N)NC(=O)[C@H](CCC(N)=O)NC(=O)[C@@H](CCCNC(=N)N)NC(=O)[C@H](CCCNC(=N)N)NC(=O)[C@H](CCCCN)NC(=O)[C@H](CCCCN)NC(=O)[C@@H](CCCNC(=N)N)NC(=O)CN)[C@@H](C)O)C(=O)N[C@@H](C)C(=O)N[C@@H](CC(N)=O)C(=O)N[C@@H](CC(=O)O)C(=O)N[C@@H](CO)C(=O)N[C@@H](CC(C)C)C(=O)N[C@@H](CCCCN)C(=O)N[C@@H](CC(C)C)C(=O)N[C@@H](CO)C(=O)N[C@@H](CCC(N)=O)C(=O)N[C@@H](CCC(=O)O)C(=O)N[C@@H](Cc1ccc(O)cc1)C(=O)N[C@@H](CCC(=O)O)C(=O)N[C@@H](CO)C(=O)N[C@H](C(N)=O)[C@@H](C)CC)C(=O)O) | significant effect of promoting axonal growth | no significant difference |
| NH2-GrKKRrQrRR-C-DMAEHTEALKANDSLcyclo(KLSQEYE)SI-NH2 [PW-239] | significant effect of promoting axonal growth | not significantly enhanced |
| PW-253: polypeptide derivative, SEQ ID NO: 48 (G[dR]KKR[dR]Q[dR]RRDMAEHTERLK([AEEA-AEEA-γGlu-Palmitoyl])ANDSLKLSQEYESI-NH2; N-terminus assumed; SMILES CCCCCCCCCCCCCCCC(=O)N[C@@H](CCC(=O)NCCOCCOCC(=O)NCCOCCOCC(=O)NCCCC[C@H](NC(=O)[C@H](CC(C)C)NC(=O)[C@H](CCCNC(=N)N)NC(=O)[C@H](CCC(=O)O)NC(=O)[C@@H](NC(=O)[C@H](Cc1c[nH]cn1)NC(=O)[C@H](CCC(=O)O)NC(=O)[C@H](C)NC(=O)[C@H](CCSC)NC(=O)[C@H](CC(=O)O)NC(=O)[C@H](CCCNC(=N)N)NC(=O)[C@H](CCCNC(=N)N)NC(=O)[C@@H](CCCNC(=N)N)NC(=O)[C@H](CCC(N)=O)NC(=O)[C@@H](CCCNC(=N)N)NC(=O)[C@H](CCCNC(=N)N)NC(=O)[C@H](CCCCN)NC(=O)[C@H](CCCCN)NC(=O)[C@@H](CCCNC(=N)N)NC(=O)CN)[C@@H](C)O)C(=O)N[C@@H](C)C(=O)N[C@@H](CC(N)=O)C(=O)N[C@@H](CC(=O)O)C(=O)N[C@@H](CO)C(=O)N[C@@H](CC(C)C)C(=O)N[C@@H](CCCCN)C(=O)N[C@@H](CC(C)C)C(=O)N[C@@H](CO)C(=O)N[C@@H](CCC(N)=O)C(=O)N[C@@H](CCC(=O)O)C(=O)N[C@@H](Cc1ccc(O)cc1)C(=O)N[C@@H](CCC(=O)O)C(=O)N[C@@H](CO)C(=O)N[C@H](C(N)=O)[C@@H](C)CC)C(=O)O) | significant effect of promoting axonal growth | no significant difference |
| CC[C@H](C)[C@H](NC(=O)[C@H](CO)NC(=O)[C@H](CCC(=O)O)NC(=O)[C@H](Cc1ccc(O)cc1)NC(=O)[C@@H]1CCC(=O)NCCCC[C@H](NC(=O)[C@H](CC(C)C)NC(=O)[C@H](CO)NC(=O)[C@H](CC(=O)O)NC(=O)[C@H](CC(N)=O)NC(=O)[C@H](C)NC(=O)[C@H](CCCCN)NC(=O)[C@H](CC(C)C)NC(=O)[C@H](CCCNC(=N)N)NC(=O)[C@H](CCC(=O)O)NC(=O)[C@@H](NC(=O)[C@H](Cc2c[nH]cn2)NC(=O)[C@H](CCC(=O)O)NC(=O)[C@H](C)NC(=O)[C@H](CCSC)NC(=O)[C@H](CC(=O)O)NC(=O)[C@H](CS)NC(=O)[C@H](CCCNC(=N)N)NC(=O)[C@H](CCCNC(=N)N)NC(=O)[C@H](CCCNC(=N)N)NC(=O)[C@H](CCC(N)=O)NC(=O)[C@H](CCCNC(=N)N)NC(=O)[C@H](CCCNC(=N)N)NC(=O)[C@H](CCCCN)NC(=O)[C@H](CCCCN)NC(=O)[C@H](CCCNC(=N)N)NC(=O)CN)[C@@H](C)O)C(=O)N[C@@H](CC(C)C)C(=O)N[C@@H](CO)C(=O)N[C@@H](CCC(N)=O)C(=O)N1)C(N)=O [PW-170] (H-GRKKRRQRRRCDMAEHTERLKANDSLKLSQEYESI-NH2; lactam 27-31) | significant effect of promoting axonal growth | no significant difference |
| PW-259: polypeptide derivative, SEQ ID NO: 50 (G[dR]KKR[dR]Q[dR]RRDMAEHTERLK([AEEA-γGlu-Palmitoyl])ANDSLKLSQEYESI-NH2; N-terminus assumed; SMILES CCCCCCCCCCCCCCCC(=O)N[C@@H](CCC(=O)NCCOCCOCC(=O)NCCCC[C@H](NC(=O)[C@H](CC(C)C)NC(=O)[C@H](CCCNC(=N)N)NC(=O)[C@H](CCC(=O)O)NC(=O)[C@@H](NC(=O)[C@H](Cc1c[nH]cn1)NC(=O)[C@H](CCC(=O)O)NC(=O)[C@H](C)NC(=O)[C@H](CCSC)NC(=O)[C@H](CC(=O)O)NC(=O)[C@H](CCCNC(=N)N)NC(=O)[C@H](CCCNC(=N)N)NC(=O)[C@@H](CCCNC(=N)N)NC(=O)[C@H](CCC(N)=O)NC(=O)[C@@H](CCCNC(=N)N)NC(=O)[C@H](CCCNC(=N)N)NC(=O)[C@H](CCCCN)NC(=O)[C@H](CCCCN)NC(=O)[C@@H](CCCNC(=N)N)NC(=O)CN)[C@@H](C)O)C(=O)N[C@@H](C)C(=O)N[C@@H](CC(N)=O)C(=O)N[C@@H](CC(=O)O)C(=O)N[C@@H](CO)C(=O)N[C@@H](CC(C)C)C(=O)N[C@@H](CCCCN)C(=O)N[C@@H](CC(C)C)C(=O)N[C@@H](CO)C(=O)N[C@@H](CCC(N)=O)C(=O)N[C@@H](CCC(=O)O)C(=O)N[C@@H](Cc1ccc(O)cc1)C(=O)N[C@@H](CCC(=O)O)C(=O)N[C@@H](CO)C(=O)N[C@H](C(N)=O)[C@@H](C)CC)C(=O)O) | significant effect of promoting axonal growth | no significant difference |
| PW-95: polypeptide derivative, SEQ ID NO: 12 (GRKKRRQRRRCDMAEHTERLKAKDSLKLSQEYESI; not fully specified; MOD_RES 35: note = I at position 35 is amidated; LIPID 23: note = Lys side-chain linked to 2-(2-(2-amino ethoxy) ethoxy) acetic acid-2-(2-(2-amino ethoxy) ethoxy)acetic acid-gamma Glutamic acid-Octadecanedioic acid; SITE 6: note = D-arginine; SITE 2: note = D-arginine; SITE 8: n) | – | not significantly enhanced |
